Results reported in article PMC4115637 (Pharmacology Research & Perspectives, 2014).
Positions count from the first letter of the chain named. Where a name gives a salt, the structure may show the parent alone. Read-outs that look alike come from different tables or passages of the source.

Tests used:
HaCaT cells = assay: Cell viability assay; assay type: cell-based, human; details: data not shown
TRPV3 = details: cited from earlier work; for EC50: depending on the model used
human TRPV3 [1] = biological target: T1, human TRPV3 (Homo sapiens, UniProt Q8NET8); assay: Re-evaluation of screening hits as TRPV3 agonists; assay type: cell-based; details: Table 1
T1 sequence (Q8NET8 1-790): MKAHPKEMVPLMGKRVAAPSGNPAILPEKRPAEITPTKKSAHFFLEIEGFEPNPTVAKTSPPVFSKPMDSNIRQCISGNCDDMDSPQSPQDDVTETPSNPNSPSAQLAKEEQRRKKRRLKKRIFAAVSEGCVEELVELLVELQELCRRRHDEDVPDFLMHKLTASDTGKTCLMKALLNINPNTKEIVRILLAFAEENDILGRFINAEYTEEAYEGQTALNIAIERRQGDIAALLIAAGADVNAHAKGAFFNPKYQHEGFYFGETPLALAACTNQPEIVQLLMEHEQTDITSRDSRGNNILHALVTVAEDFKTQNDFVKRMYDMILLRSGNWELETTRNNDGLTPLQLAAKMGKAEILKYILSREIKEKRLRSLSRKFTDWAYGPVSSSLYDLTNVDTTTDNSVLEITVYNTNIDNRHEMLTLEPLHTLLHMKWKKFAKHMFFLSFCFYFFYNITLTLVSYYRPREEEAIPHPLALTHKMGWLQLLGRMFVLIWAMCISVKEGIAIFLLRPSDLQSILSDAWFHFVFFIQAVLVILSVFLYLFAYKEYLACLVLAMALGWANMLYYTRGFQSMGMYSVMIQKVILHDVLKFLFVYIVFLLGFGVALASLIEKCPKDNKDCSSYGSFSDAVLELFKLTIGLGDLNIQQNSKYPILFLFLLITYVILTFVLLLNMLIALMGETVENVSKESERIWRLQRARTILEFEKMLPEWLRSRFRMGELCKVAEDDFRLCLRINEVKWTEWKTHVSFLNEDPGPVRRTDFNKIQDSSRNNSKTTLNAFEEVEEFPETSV

human TRPV3 [2] = biological target: T1, human TRPV3; assay: Re-evaluation of screening hits as TRPV3 antagonists; assay type: cell-based; details: Table 2; selectivity versus other TRP channel overexpressing HEK-293 lines
TRPV3-R696K = biological target: T2, TRPV3-R696K (Homo sapiens, UniProt Q8NET8, R696K); assay: Calcium flux in HEK-293 cells transiently transfected with TRPV3-R696K; assay type: cell-based; details: 100 μmol/L carvacrol, 100 μmol/L 2-APB, 100 and 200 μmol/L drofenine
T2 sequence (Q8NET8 1-790 R696K): T1 sequence (Q8NET8 1-790) with R696K

TRPV3 in HaCaT cells = biological target: T3, TRPV3 in HaCaT cells (Homo sapiens, UniProt Q8NET8); assay: Calcium flux in HaCaT cells; assay type: cell-based
T3 sequence (Q8NET8 1-790): T1 sequence (Q8NET8 1-790)

human TRPV3 [3] = biological target: T1, human TRPV3; assay: Calcium flux in TRPV3 overexpressing HEK-293 cells; assay type: cell-based
TRPV3-H426N = biological target: T4, TRPV3-H426N (Homo sapiens, UniProt Q8NET8, H426N); assay: Calcium flux in HEK-293 cells transiently transfected with TRPV3-H426N; assay type: cell-based; details: agonist 100 μmol/L
T4 sequence (Q8NET8 1-790 H426N): T1 sequence (Q8NET8 1-790) with H426N

human TRPV3 [4] = biological target: T1, human TRPV3; assay: Inhibition of agonist-induced calcium flux in TRPV3 overexpressing HEK-293 cells; assay type: cell-based; details: all three agonists (drofenine, carvacrol, 2-APB)
human TRPV1 = human TRPV1 (Homo sapiens, UniProt Q8NER1); assay: Calcium flux in HEK-293 cells overexpressing TRPV1; assay type: cell-based; details: Table 2 comment
Chain of human TRPV1 (Q8NER1 whole entry): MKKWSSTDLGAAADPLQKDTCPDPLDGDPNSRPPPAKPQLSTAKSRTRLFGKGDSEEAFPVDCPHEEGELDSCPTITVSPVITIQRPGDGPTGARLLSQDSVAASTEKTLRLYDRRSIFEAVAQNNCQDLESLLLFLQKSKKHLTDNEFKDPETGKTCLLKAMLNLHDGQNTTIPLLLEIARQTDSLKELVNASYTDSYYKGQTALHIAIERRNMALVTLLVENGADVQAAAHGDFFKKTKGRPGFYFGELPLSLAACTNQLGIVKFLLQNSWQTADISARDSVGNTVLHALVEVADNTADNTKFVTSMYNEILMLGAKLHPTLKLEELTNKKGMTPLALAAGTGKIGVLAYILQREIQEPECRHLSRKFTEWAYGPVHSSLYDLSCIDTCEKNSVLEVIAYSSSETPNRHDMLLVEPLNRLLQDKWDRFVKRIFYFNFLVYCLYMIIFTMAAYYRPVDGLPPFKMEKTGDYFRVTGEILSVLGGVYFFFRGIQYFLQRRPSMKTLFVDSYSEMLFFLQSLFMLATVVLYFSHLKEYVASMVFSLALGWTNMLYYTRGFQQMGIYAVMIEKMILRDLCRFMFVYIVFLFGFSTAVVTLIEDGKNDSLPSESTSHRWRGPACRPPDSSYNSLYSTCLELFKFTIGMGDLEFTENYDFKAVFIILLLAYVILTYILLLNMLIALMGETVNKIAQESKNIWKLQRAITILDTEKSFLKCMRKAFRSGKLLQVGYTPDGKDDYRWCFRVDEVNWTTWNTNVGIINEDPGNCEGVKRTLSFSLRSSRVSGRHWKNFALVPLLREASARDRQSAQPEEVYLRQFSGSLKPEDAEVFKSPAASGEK

Row | Compound | Comment(s): re-evaluation as TRPV3 agonist (human TRPV3 [1]) | Comment(s): re-evaluation as TRPV3 antagonist (human TRPV3 [2]) | also measured
1 | O=C1NC(c2cccc([N+](=O)[O-])c2)=CCN1c1ccccc1O [icilin] | – | – | cytotoxicity (HaCaT cells): potently cytotoxic; inhibition of TRPV3 (TRPV3; ref Sherkheli et al. [2012]): inhibits TRPV3 at low micromolar concentrations
2 | Acriflavinium HCl | Fluorescence interference | – | –
3 | CC(=O)OC(C)C[N+](C)(C)C (centres unmarked) [Methacholine] | Nonselective; HEK-293 response | – | –
4 | CC[C@H]1OC(=O)[C@H](C)[C@@H](O[C@H]2C[C@@](C)(OC)[C@@H](O)[C@H](C)O2)[C@H](C)[C@@H](O[C@@H]2O[C@H](C)C[C@H](N(C)C)[C@H]2O)[C@](C)(O)C[C@@H](C)C(=O)[C@H](C)[C@@H](O)[C@]1(C)O [Erythromycin] | – | Not inhibitory on rescreen | –
5 | O=C1C(CC[S+]([O-])c2ccccc2)C(=O)N(c2ccccc2)N1c1ccccc1 (centres unmarked) [Sulfinpyrazone] | – | Not inhibitory on rescreen | –
6 | CCCCOc1ccc(C(=O)CCN2CCCCC2)cc1 [Dyclonine HCl] | – | Not inhibitory on rescreen | –
7 | C[N+](C)(C)CCOC(N)=O [Carbachol] | Nonselective; HEK-293 response | – | –
8 | O=C(O)c1ccccc1Nc1cccc(C(F)(F)F)c1 [Flufenamic acid] | – | Nonselective; also inhibited TRPV1 | –
9 | CC(C)=CCC/C(C)=C/CC/C(C)=C/COP(=O)(O)OP(=O)(O)O [farnesyl pyrophosphate] | – | – | EC50 (TRPV3; ref Bang et al. [2010]): ~0.13 µM
10 | CC(C)COCC(CN(Cc1ccccc1)c1ccccc1)N1CCCC1.Cl.O (centres unmarked) [Bepradil HCl] | Inactive in confirmation assay | – | –
11 | Cc1ccc(C(C)C)cc1O [carvacrol] | – | – | calcium flux in TRPV3-R696K (TRPV3-R696K): diminished-to-no-function; EC50 (TRPV3 in HaCaT cells): > 1000 µM; EC50 (human TRPV3 [3]): 438 µM; calcium flux in TRPV3-H426N relative to TRPV3-WT (TRPV3-H426N): no effect
12 | CCCCCCc1ccc(O)cc1O.Nc1c2ccccc2nc2ccccc12 [Acrisorcin] | 4-Hexylresorcinol inactive as TRPV3 agonist; 9-aminoacridine fluorescence interference | – | –
13 | CN[C@@H]1[C@H](O)[C@H](NC)[C@H]2O[C@@]3(O)C(=O)C[C@@H](C)O[C@H]3O[C@@H]2[C@H]1O.Cl.Cl.O.O.O.O.O [Spectinomycin HCl] | – | Not inhibitory on rescreen | –
14 | CC(=O)CC(c1ccccc1)c1c(O)c2ccccc2oc1=O (centres unmarked) [Warfarin] | – | Nonselective; also inhibited TRPV1 | –
15 | CC(=O)Nc1ccccc1 [Acetanilide] | Inactive in confirmation assay | – | –
16 | Cc1ccc(C(C)(C)C)c(O)c1 [cresol, 6-tert-butyl-m-cresol] | – | – | EC50 (TRPV3; ref Vogt-Eisele et al. [2007]): > 6000 µM
17 | Cc1cccc2c1N(C(=O)CSc1ccc(C(F)(F)F)cn1)CCC2 [TRPV3 antagonist, 2-(5-trifluoromethyl-pyridine-2ylsulfanyl)-1-(8-methyl-3,4-dihydro-2H-quinolin-1-yl)-ethanone] | – | – | IC50 (human TRPV3 [4]): 1 to 3 µM
18 | O=C(N[C@H](CO)[C@H](O)c1ccc([N+](=O)[O-])cc1)C(Cl)Cl [Chloramphenicol] | – | Not inhibitory on rescreen | –
19 | CCCCNc1ccc(C(=O)OCCN(C)C)cc1 [Tetracaine HCl] | – | inhibited TRPA1>V3=V1 | concentration of apparent TRPV1 agonist activity (human TRPV1): < 25 µmol/L
20 | CC(=O)OCC[N+](C)(C)C [Acetylcholine] | Nonselective; HEK-293 response | – | –
21 | COc1cc([C@@H]2c3cc4c(cc3[C@@H](O[C@@H]3O[C@@H]5CO[C@@H](C)O[C@H]5[C@H](O)[C@H]3O)[C@H]3COC(=O)[C@H]23)OCO4)cc(OC)c1O [Etoposide] | – | Cytotoxic, false positive | –
